# Where a SMILES comes first, the peptide text is derived from it. The star is where a group is joined. Myristoyl = CCCCCCCCCCCCCC(=O)*
# Columns and labels:
# MDA-MB-231 cells = type: cell-based, human; details: 50 μM peptide, 48 hours, n = 1
# Excerpt: (§1) Non-adherent cells were removed during the washing steps.
# [1] = tested on: CD44^hiCD24^lo CSCs in MDA-MB-231 cells; assay: FACS analysis of CD44^hiCD24^lo cancer stem cells in MDA-MB-231 cells treated with P1 analogues; type: cell-based, human; details: 50 μM peptide, 48 hours; for CD44^hiCD24^lo CSCs (%) / COI, Live Single CD44^hiCD24^lo CSCs (Cell Count): n = 1; for Average Inhibition of CSCs (%) / CD44^hiCD24^lo CSCs (%) Repeat 1 / CD44^hiCD24^lo CSCs (%) Repeat 2 / CD44^hiCD24^lo CSCs (%) Repeat 3: n = 3
# Procedure: Analogues of P1 (Table 6) were designed and synthesized in accordance with the procedure of Example 5. The ability of these analogues to inhibit cancer stem cells was determined using FACS analysis on MDA-MB-231 cells, which constitutively contain approximately 90% CD44^hiCD24^lo cancer stem cells, treated with the peptides.
# as §1
# 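Throughout, for COI, Live Single Cells (Cell Count): live means Hoechst-negative events among single cells.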
SMILES,COI (Cell Count) (MDA-MB-231 cells),"COI, Live Single Cells (Cell Count) (MDA-MB-231 cells)","COI, Single (Cell Count) (MDA-MB-231 cells)",Total Cell Count (MDA-MB-231 cells),Inhibition of CSCs (%) Repeat 1 [1] [%],Inhibition of CSCs (%) Repeat 2 [1] [%],Inhibition of CSCs (%) Repeat 3 [1] [%],CD44^hiCD24^lo CSCs (%) [1] [%],"COI, Live Single CD44^hiCD24^lo CSCs (Cell Count) [1]",Average Inhibition of CSCs (%) [1] [%],CD44^hiCD24^lo CSCs (%) Repeat 1 [1] [%],CD44^hiCD24^lo CSCs (%) Repeat 2 [1] [%],CD44^hiCD24^lo CSCs (%) Repeat 3 [1] [%]
"CCCCCCCCCCCCCC(=O)N[C@@H](CC(C)C)C(=O)N[C@H](C(=O)N[C@@H](CCCCN)C(=O)N[C@H](C(=O)N[C@@H](Cc1ccccc1)C(=O)N[C@@H](CCCNC(=N)N)C(=O)N[C@@H](CC(C)C)C(=O)N[C@@H](CCCNC(=N)N)C(=O)N[C@@H](CCCCN)C(=O)NCC(=O)N[C@@H](CCCNC(=N)N)C(=O)N[C@@H](CCSC)C(=O)N[C@@H](CCSC)C(=O)N[C@@H](CC(=O)O)C(=O)N[C@H](C(=O)N[C@@H](CCCCN)C(=O)N[C@@H](CCCCN)C(N)=O)C(C)C)[C@@H](C)CC)[C@@H](C)O [Peptide 2853808, Myristoyl-LTKIFRLRKGRMMDVKK-NH2] (Myristoyl-LTKIFRLRKGRMMDVKK-NH2)",323,242,279,1192,87.54,84.31,84.48,10.74,26,85.44,11.17,14.07,13.92
"CCCCCCCCCCCCCC(=O)N[C@@H](CC(C)C)C(=O)N[C@H](C(=O)N[C@H](C(=O)N[C@H](C(=O)N[C@@H](Cc1ccccc1)C(=O)N[C@@H](CCCNC(=N)N)C(=O)N[C@@H](CC(C)C)C(=O)N[C@@H](CCCNC(=N)N)C(=O)N[C@@H](CCCCN)C(=O)NCC(=O)N[C@@H](CCCNC(=N)N)C(=O)N[C@@H](CCSC)C(=O)N[C@@H](CCSC)C(=O)N[C@@H](CC(=O)O)C(=O)N[C@H](C(=O)N[C@@H](CCCCN)C(=O)N[C@@H](CCCCN)C(N)=O)C(C)C)[C@@H](C)CC)C(C)C)[C@@H](C)O [Peptide 2853809, Myristoyl-LTVIFRLRKGRMMDVKK-NH2] (Myristoyl-LTVIFRLRKGRMMDVKK-NH2)",1736,1508,1560,3548,49.62,53.48,60.55,35.61,537,54.55,45.15,41.73,35.40
"CCCCCCCCCCCCCC(=O)N[C@@H](CC(C)C)C(=O)N[C@H](C(=O)N[C@@H](Cc1ccccc1)C(=O)N[C@@H](CCC(=O)O)C(=O)N[C@@H](Cc1ccccc1)C(=O)N[C@@H](CCCNC(=N)N)C(=O)N[C@@H](CC(C)C)C(=O)N[C@@H](CCCNC(=N)N)C(=O)N[C@@H](CCCCN)C(=O)NCC(=O)N[C@@H](CCCNC(=N)N)C(=O)N[C@@H](CCSC)C(=O)N[C@@H](CCSC)C(=O)N[C@@H](CC(=O)O)C(=O)N[C@H](C(=O)N[C@@H](CCCCN)C(=O)N[C@@H](CCCCN)C(N)=O)C(C)C)[C@@H](C)O [Peptide 2853810, Myristoyl-LTFEFRLRKGRMMDVKK-NH2] (Myristoyl-LTFEFRLRKGRMMDVKK-NH2)",778,545,613,3451,87.14,87.82,83.75,13.58,74,86.23,11.53,10.93,14.58
"CCCCCCCCCCCCCC(=O)N[C@@H](CC(C)C)C(=O)N[C@H](C(=O)N[C@@H](Cc1ccccc1)C(=O)N[C@@H](CCCCN)C(=O)N[C@@H](Cc1ccccc1)C(=O)N[C@@H](CCCNC(=N)N)C(=O)N[C@@H](CC(C)C)C(=O)N[C@@H](CCCNC(=N)N)C(=O)N[C@@H](CCCCN)C(=O)NCC(=O)N[C@@H](CCCNC(=N)N)C(=O)N[C@@H](CCSC)C(=O)N[C@@H](CCSC)C(=O)N[C@@H](CC(=O)O)C(=O)N[C@H](C(=O)N[C@@H](CCCCN)C(=O)N[C@@H](CCCCN)C(N)=O)C(C)C)[C@@H](C)O [Peptide 2853811, Myristoyl-LTFKFRLRKGRMMDVKK-NH2] (Myristoyl-LTFKFRLRKGRMMDVKK-NH2)",79,64,69,1274,57.93,62.10,67.22,39.06,25,62.42,37.70,34.00,29.41
"CCCCCCCCCCCCCC(=O)N[C@@H](CC(C)C)C(=O)N[C@H](C(=O)N[C@@H](Cc1ccccc1)C(=O)N[C@@H](CC(C)C)C(=O)N[C@@H](Cc1ccccc1)C(=O)N[C@@H](CCCNC(=N)N)C(=O)N[C@@H](CC(C)C)C(=O)N[C@@H](CCCNC(=N)N)C(=O)N[C@@H](CCCCN)C(=O)NCC(=O)N[C@@H](CCCNC(=N)N)C(=O)N[C@@H](CCSC)C(=O)N[C@@H](CCSC)C(=O)N[C@@H](CC(=O)O)C(=O)N[C@H](C(=O)N[C@@H](CCCCN)C(=O)N[C@@H](CCCCN)C(N)=O)C(C)C)[C@@H](C)O [Peptide 2853812, Myristoyl-LTFLFRLRKGRMMDVKK-NH2] (Myristoyl-LTFLFRLRKGRMMDVKK-NH2)",108,84,87,3794,80.95,86.31,86.89,16.67,14,84.72,17.07,12.28,11.76
"CCCCCCCCCCCCCC(=O)N[C@@H](CC(C)C)C(=O)N[C@H](C(=O)N[C@@H](Cc1ccccc1)C(=O)N[C@H](C(=O)N[C@@H](CCC(=O)O)C(=O)N[C@@H](CCCNC(=N)N)C(=O)N[C@@H](CC(C)C)C(=O)N[C@@H](CCCNC(=N)N)C(=O)N[C@@H](CCCCN)C(=O)NCC(=O)N[C@@H](CCCNC(=N)N)C(=O)N[C@@H](CCSC)C(=O)N[C@@H](CCSC)C(=O)N[C@@H](CC(=O)O)C(=O)N[C@H](C(=O)N[C@@H](CCCCN)C(=O)N[C@@H](CCCCN)C(N)=O)C(C)C)[C@@H](C)CC)[C@@H](C)O [Peptide 2853813, Myristoyl-LTFIERLRKGRMMDVKK-NH2] (Myristoyl-LTFIERLRKGRMMDVKK-NH2)",55,18,48,867,77.05,75.44,67.63,27.78,5,73.37,20.57,22.04,29.05
"CCCCCCCCCCCCCC(=O)N[C@@H](CC(C)C)C(=O)N[C@H](C(=O)N[C@@H](Cc1ccccc1)C(=O)N[C@H](C(=O)N[C@@H](Cc1ccc(O)cc1)C(=O)N[C@@H](CCCNC(=N)N)C(=O)N[C@@H](CC(C)C)C(=O)N[C@@H](CCCNC(=N)N)C(=O)N[C@@H](CCCCN)C(=O)NCC(=O)N[C@@H](CCCNC(=N)N)C(=O)N[C@@H](CCSC)C(=O)N[C@@H](CCSC)C(=O)N[C@@H](CC(=O)O)C(=O)N[C@H](C(=O)N[C@@H](CCCCN)C(=O)N[C@@H](CCCCN)C(N)=O)C(C)C)[C@@H](C)CC)[C@@H](C)O [Peptide 2853814, Myristoyl-LTFIYRLRKGRMMDVKK-NH2] (Myristoyl-LTFIYRLRKGRMMDVKK-NH2)",437,368,387,999,73.80,76.59,77.85,13.86,51,76.08,23.48,21.00,19.88

# From patent US20200339691A1, “PROTEINACEOUS MOLECULES AND USES THEREFOR” (priority 2018, published 2020)
